In patent US6884809B2 (Cornell Research Foundation, Inc., priority 2001, dated 2005):

How the values were obtained:
SH-SY5Y-H3 cells [1] = assay: Cai measurements (Fura-2) in K+-depolarized H3R-transfected SH-SY5Y-H3 cells; type: cell-based, human
Na+/H+ exchanger (NHE) = assay: NHE activity: Na+-dependent pHi recovery after NH4Cl acid pulse in BCECF-loaded SKNMC-H3 cells; type: cell-based, human
[2] = test system: guinea-pig heart synaptosomes; type: cell-based
SH-SY5Y cells [3] = type: cell-based, human
H3R = H3R (Homo sapiens, UniProt Q9Y5N1); settings: read-out: EC50 to activate the H3R; cited from earlier work
SH-SY5Y-H3 cells [4] = type: cell-based, human
SH-SY5Y cells [5] = type: cell-based, human; remark: listed apart in the source
[6] = thioperamide 300 nM plus imetit 100 nM

Sequence of H3R (Q9Y5N1 whole entry, species assumed): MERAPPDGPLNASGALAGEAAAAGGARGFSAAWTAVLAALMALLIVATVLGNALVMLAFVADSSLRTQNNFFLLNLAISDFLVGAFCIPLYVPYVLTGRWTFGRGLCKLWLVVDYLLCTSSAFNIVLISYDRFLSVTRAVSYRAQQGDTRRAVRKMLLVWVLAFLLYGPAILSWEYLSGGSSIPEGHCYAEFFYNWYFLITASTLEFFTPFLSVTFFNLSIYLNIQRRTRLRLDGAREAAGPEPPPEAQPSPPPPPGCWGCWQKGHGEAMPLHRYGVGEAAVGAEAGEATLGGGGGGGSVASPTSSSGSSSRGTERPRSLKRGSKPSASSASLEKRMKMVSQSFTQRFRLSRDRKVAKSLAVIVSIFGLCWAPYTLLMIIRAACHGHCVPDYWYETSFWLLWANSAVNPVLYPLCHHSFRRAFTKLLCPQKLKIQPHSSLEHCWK

In the case of N=C(N)SCCc1cnc[nH]1 [imetit, Imetit], the “K+-elicited Ca2+ transients” value (SH-SY5Y-H3 cells [1]) is reported as “markedly depressed”, the “decrease in peak Cai concentration elicited by 100 mM K+” value (SH-SY5Y-H3 cells [1]) is reported as 55% and the “inhibition of NHE activity” value (Na+/H+ exchanger (NHE); imetit 100 nM) is reported as 35%. For the same compound, the “rate of intracellular alkalinization, representative single cell” value (Na+/H+ exchanger (NHE); imetit 100 nM, cell of FIG. 1B, control cell 0.094) was 0.050 pHi units/min, the “final pHi after re-introduction of Na+” value (Na+/H+ exchanger (NHE); imetit 100 nM, n=277 cells) was 6.61±0.01 and the “initial pHi” value (Na+/H+ exchanger (NHE); imetit-treated cells, n=277) was 6.74±0.01. For the same compound, the “pHi right before Na+ was reintroduced (0 Na pHi)” value (Na+/H+ exchanger (NHE); imetit-treated cells, n=277) was 6.26±0.01, the “cells with rates lower than the mean control rate of 0.074 pHi units/min” value (Na+/H+ exchanger (NHE); imetit-treated, 277 cells) was 77% and the “concentration-response curve for K+-induced exocytosis of endogenous NE” value [2] was “significantly shifted downwards”. The “K+-elicited Cai transients” value (SH-SY5Y cells [3]) was “fails to affect Cai transients”, the “effect on peak Cai concentration elicited by 100 mM K+” value (SH-SY5Y cells [3]) was “failed to affect peak Cai concentration” and the EC50 (H3R) was 2 nM. For the same compound, the “concentration-response curve for K+-induced exocytosis of [3H]NE” value (“concentration-response curve … [3H]NE” for short) (SH-SY5Y-H3 cells [4]) was “significantly shifted downwards”.
For CCN(c1nc(N)c(C(=O)N=C(N)N)nc1Cl)C(C)C [EIPA, 5-(N-ethyl-N-isopropyl)amiloride], the “inhibition of NHE activity” value (Na+/H+ exchanger (NHE); EIPA 10 uM) was 50% and the “mean rate of Na+-dependent intracellular alkalinization (NHE activity)” value (Na+/H+ exchanger (NHE); EIPA 10 uM, control 0.074) was 0.031 pHi units/min.
In the case of ω-conotoxin GVIA [ω-CTX], the “increase in peak Cai concentration on K+ depolarization” value (SH-SY5Y-H3 cells [1]) is reported as “markedly attenuated”, the “concentration-response curve … [3H]NE” value (SH-SY5Y cells [5]) is reported as “shifted markedly downwards” and the “concentration-response curve for K+-induced exocytosis of endogenous NE” value [2] is reported as “shifted markedly downwards”. The “increase in peak Cai concentration on K+ depolarization” value (SH-SY5Y cells [3]) was “markedly attenuated” and the “concentration-response curve … [3H]NE” value (SH-SY5Y-H3 cells [4]) was “shifted markedly downwards”.
In the case of S=C(NC1CCCCC1)N1CCC(c2c[nH]cn2)CC1 [thioperamide, Thioperamide], the “effect on imetit-induced depression of the rise in Cai concentration” value (SH-SY5Y-H3 cells [1]; [6]) is reported as “completely prevented”, the “effect on the imetit response of Ca2+ transients” value (SH-SY5Y-H3 cells [1]; [6]) is reported as “prevented” and the “effect on NHE activity” value (Na+/H+ exchanger (NHE); thioperamide 300 nM alone) is reported as “did not significantly modify NHE activity”. The “effect on imetit-induced NHE attenuation” value (Na+/H+ exchanger (NHE); [6]) was “abolished the imetit-induced NHE attenuation”, the “effect on imetit-induced attenuation of endogenous NE exocytosis” value [2] was “prevented” and the “effect on imetit-induced attenuation of [3H]NE exocytosis” value (SH-SY5Y-H3 cells [4]) was “prevented”.
